# From ChEMBL document CHEMBL6078697, “Synthesis and Evaluation of 9-epi-Koshidacin B as Selective Inhibitor of Histone Deacetylase 1” (J Nat Prod, 2024)
# Experiments:
# [1] = molecular target: T1, Histone deacetylase 1 (Homo sapiens, UniProt Q13547); test: Inhibition of HDAC1 (unknown origin) using RHKK(Ac)AMC as substrate
# [2] = molecular target: T1, Histone deacetylase 1; test: Binding affinity to HDAC1 (unknown origin) assessed as inhibition constant
# [3] = molecular target: Histone deacetylase 4 (Homo sapiens, UniProt P56524); test: Inhibition of HDAC4 (unknown origin) using trifluoroacetyl lysine as substrate
# [4] = molecular target: T2, Protein deacetylase HDAC6 (Homo sapiens, UniProt Q9UBN7); test: Inhibition of HDAC6 (unknown origin) using RHKK(Ac)AMC as substrate
# T2 sequence (Q9UBN7 whole entry): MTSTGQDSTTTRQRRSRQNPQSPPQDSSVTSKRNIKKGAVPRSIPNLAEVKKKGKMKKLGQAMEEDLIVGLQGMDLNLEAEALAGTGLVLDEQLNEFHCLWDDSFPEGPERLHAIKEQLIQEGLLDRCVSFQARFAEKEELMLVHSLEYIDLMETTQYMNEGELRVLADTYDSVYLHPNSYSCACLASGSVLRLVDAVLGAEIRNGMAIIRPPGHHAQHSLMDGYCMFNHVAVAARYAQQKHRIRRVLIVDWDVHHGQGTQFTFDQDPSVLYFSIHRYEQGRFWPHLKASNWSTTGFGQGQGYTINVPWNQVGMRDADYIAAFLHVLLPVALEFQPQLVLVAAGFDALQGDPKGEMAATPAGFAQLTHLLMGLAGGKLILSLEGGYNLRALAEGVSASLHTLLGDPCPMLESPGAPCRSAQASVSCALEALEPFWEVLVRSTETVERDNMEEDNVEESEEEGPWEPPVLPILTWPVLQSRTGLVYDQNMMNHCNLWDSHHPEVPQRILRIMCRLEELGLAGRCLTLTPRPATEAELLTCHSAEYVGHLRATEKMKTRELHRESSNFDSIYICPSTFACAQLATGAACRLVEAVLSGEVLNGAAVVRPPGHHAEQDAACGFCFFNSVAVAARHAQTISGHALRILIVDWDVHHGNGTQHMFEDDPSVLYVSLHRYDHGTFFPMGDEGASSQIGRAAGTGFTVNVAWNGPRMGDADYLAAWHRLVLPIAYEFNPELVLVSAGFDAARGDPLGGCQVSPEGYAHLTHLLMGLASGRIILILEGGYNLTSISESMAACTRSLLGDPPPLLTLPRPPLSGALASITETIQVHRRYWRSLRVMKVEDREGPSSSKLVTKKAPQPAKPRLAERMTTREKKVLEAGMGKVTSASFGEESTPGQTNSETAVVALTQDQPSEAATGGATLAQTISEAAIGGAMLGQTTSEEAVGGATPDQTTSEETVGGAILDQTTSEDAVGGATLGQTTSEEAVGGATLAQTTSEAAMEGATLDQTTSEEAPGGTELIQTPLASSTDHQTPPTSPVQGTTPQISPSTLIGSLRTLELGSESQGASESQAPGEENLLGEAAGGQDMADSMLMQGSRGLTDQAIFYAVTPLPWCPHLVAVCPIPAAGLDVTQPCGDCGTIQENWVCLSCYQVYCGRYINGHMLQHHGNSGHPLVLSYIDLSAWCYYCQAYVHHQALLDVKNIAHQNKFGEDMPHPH
# [5] = molecular target: T1, Histone deacetylase 1; test: Inhibition of HDAC1 (unknown origin)
# [6] = Selectivity ratio of IC50 for inhibition of HDAC4 (unknown origin) to IC50 for inhibition of HDAC1 (unknown origin)
# [7] = Selectivity ratio of IC50 for inhibition of HDAC6 (unknown origin) to IC50 for inhibition of HDAC1 (unknown origin)
# T1 sequence (Q13547 whole entry): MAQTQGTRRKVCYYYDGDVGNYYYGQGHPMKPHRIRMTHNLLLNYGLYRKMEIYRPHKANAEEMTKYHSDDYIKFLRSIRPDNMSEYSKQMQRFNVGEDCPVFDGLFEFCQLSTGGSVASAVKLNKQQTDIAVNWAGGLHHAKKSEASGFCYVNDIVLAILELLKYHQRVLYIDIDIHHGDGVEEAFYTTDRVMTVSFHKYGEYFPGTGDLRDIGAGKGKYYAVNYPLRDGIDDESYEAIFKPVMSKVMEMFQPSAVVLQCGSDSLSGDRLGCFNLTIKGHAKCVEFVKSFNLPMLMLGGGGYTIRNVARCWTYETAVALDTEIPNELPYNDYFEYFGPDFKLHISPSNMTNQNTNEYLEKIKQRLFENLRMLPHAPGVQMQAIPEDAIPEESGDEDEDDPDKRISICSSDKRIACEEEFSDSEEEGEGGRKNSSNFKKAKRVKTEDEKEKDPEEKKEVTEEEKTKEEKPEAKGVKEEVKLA
# Chain of Histone deacetylase 4 (P56524 whole entry): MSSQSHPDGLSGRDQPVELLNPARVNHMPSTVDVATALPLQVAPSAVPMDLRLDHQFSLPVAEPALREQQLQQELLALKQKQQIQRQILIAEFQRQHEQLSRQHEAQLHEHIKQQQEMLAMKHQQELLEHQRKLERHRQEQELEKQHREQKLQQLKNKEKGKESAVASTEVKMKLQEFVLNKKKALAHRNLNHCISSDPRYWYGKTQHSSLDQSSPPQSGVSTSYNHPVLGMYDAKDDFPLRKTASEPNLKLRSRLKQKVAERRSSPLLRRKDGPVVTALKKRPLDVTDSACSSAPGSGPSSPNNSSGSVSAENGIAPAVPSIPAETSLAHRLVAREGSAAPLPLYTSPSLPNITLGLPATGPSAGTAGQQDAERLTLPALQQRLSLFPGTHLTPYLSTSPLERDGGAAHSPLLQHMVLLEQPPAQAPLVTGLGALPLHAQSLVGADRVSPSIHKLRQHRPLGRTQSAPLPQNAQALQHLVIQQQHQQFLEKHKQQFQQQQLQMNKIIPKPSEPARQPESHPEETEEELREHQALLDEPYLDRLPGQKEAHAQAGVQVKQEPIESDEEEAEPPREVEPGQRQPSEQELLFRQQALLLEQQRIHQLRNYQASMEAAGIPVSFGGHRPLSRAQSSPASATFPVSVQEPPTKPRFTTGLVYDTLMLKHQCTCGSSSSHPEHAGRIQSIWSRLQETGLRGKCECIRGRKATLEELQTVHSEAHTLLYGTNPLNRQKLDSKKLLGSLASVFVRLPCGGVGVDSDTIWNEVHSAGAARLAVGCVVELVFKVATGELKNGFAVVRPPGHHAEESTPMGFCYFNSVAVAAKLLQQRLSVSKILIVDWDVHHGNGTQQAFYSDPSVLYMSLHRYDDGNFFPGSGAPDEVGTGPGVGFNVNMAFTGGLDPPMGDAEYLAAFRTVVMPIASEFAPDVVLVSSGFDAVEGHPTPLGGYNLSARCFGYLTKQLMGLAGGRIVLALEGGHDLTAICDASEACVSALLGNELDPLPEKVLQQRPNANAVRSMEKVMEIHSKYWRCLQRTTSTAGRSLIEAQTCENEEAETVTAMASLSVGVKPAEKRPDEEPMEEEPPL
IC50 [1] [µM],Ki [2] [µM],SMILES,other results
0.33,–,C[C@H](O)C(=O)CCCCC[C@@H]1NC(=O)[C@H]2CCCN2C(=O)[C@H](Cc2ccccc2)NC(=O)C(C)(C)NC1=O,–
–,11.2,CC1(C)NC(=O)[C@H](CCCCCC(=O)[C@@H](O)CO)NC(=O)[C@H]2CCCN2C(=O)[C@H](Cc2ccccc2)NC1=O (stereo in doubt; form 1),–
0.03,–,C[C@@H](O)C(=O)CCCCC[C@@H]1NC(=O)[C@H]2CCCN2C(=O)[C@H](Cc2ccccc2)NC(=O)C(C)(C)NC1=O,–
–,5.65,CC1(C)NC(=O)[C@H](CCCCCC(=O)[C@H](O)CO)NC(=O)[C@H]2CCCN2C(=O)[C@H](Cc2ccccc2)NC1=O (stereo in doubt; form 1),–

# The next lines start with the compound.
SMILES,IC50 [1] [µM],Ki [2] [µM],other results
CC1(C)NC(=O)[C@H](CCCCCC(=O)[C@@H](O)CO)NC(=O)[C@H]2CCCN2C(=O)[C@H](Cc2ccccc2)NC1=O (stereo in doubt; form 2),–,22.1,–
CC1(C)NC(=O)[C@H](CCCCCC(=O)[C@H](O)CO)NC(=O)[C@H]2CCCN2C(=O)[C@H](Cc2ccccc2)NC1=O [listing 1 of 2 here],0.145,–,IC50 [3]: 1000 µM; IC50 [4]: 319 µM
CC[C@]1(C)NC(=O)[C@H](CCCCCC(=O)[C@@H](C)O)NC(=O)[C@H]2CCCN2C(=O)[C@H](Cc2ccc(O)cc2)NC1=O,–,–,IC50 [5]: 0.0215 µM
CC1(C)NC(=O)[C@H](CCCCCC(=O)[C@@H]2CO2)NC(=O)[C@H]2CCCN2C(=O)[C@H](Cc2ccccc2)NC1=O,0.00015,–,IC50 [4]: 1.1 µM; IC50 [5]: 1.1 µM
CC1(C)NC(=O)[C@H](CCCCCC(=O)[C@H](O)CO)NC(=O)[C@H]2CCCN2C(=O)[C@H](Cc2ccccc2)NC1=O (stereo in doubt; form 2),–,15.8,–
CC1(C)NC(=O)[C@H](CCCCCC(=O)[C@H](O)CO)NC(=O)[C@H]2CCCN2C(=O)[C@H](Cc2ccccc2)NC1=O [listing 2 of 2 here],–,–,Ratio IC50 [6]: 7000; Ratio IC50 [7]: 2200
